Source: US12642776B2, “Anticoccidial composition comprising stilbene-based compound, and use thereof” (CJ CHEILJEDANG CORPORATION, priority 2020, dated 2026)
Marks after values point to notes of the source that are not given here.

What was measured:
[1] = tested on: Eimeria tenella protozoan (sporozoite); test: Direct killing effect against Eimeria tenella protozoan (sporozoite), microscopic count of alive sporozoites; details: for concentration showing death rate of 50% or more against the protozoan: tested 16 to 500 ppm
Description: In the present example, protozoan (sporozoite) direct killing ability evaluation was conducted against 1 representative Eimeria kind known to be infected in most farms (E. tenella).
A certain amount of oocysts of each coccidial protozoan was put in a tube containing glass beads and pulverized, and then to remove the crushed oocyst cell wall and other debris, internal sporocysts were purified using the percoll density gradient, and washed with PBS solution. A reagent comprising sodium taurocholic acid (Sigma aldrich, USA) and trypsin (Gibco, USA), respectively, was treated to sporocysts of Eimeria tenella for excystation of the internal sporozoites, and they were incubated, and then they were washed with PBS solution once and the protozoa were obtained.
After reacting the pterostilbene, pinostilbene and anticoccidial agents, diclazuril and gallic acid (hereinafter, material) with the protozoan of Eimeria tenella at various concentrations of 16 to 500 ppm, respectively, only alive protozoa (sporozoites) were counted through microscopic observation.

[2] = tested on: Eimeria tenella; test: In vivo anticoccidial efficacy evaluation in broilers challenge-inoculated with Eimeria tenella; parameters: species or system Ross broilers; key to ACI: ACI out of 200 points; higher = better; ≥160 very excellent; Lesion index / Oocyst index: scale not given here; details: for Survival rate after challenge inoculation (%): Eimeria tenella-infected broilers, 10,000 oocysts oral, up to 8th day after challenge; for Survival rate after challenge inoculation (%) / BWG after challenge inoculation (g/d) / ACI / Lesion score / Oocyst index / Lesion index / Daily weight gain compared to negative control group (RWG, %): feed with salinomycin 60 ppm, resveratrol 125 ppm or pterostilbene 125 ppm; for BWG after challenge inoculation (g/d) / anticoccidial index: Eimeria tenella-infected broilers; for BWG after challenge inoculation (g/d): before challenge to 7th day after; for anticoccidial index: Table 5; for ACI: anticoccidial index by Equation 2, out of 200 points; for Lesion score: appendix lesion, scale 0-4, 8th day after challenge; for anticoccidial efficacy compared with salinomycin: comparison of anticoccidial index with salinomycin treatment group; for Oocyst index: index from oocyst excretion (%) compared to infected negative control group; for Lesion index: lesion score x 10; for Daily weight gain compared to negative control group (RWG, %): relative to non-infected negative control group
Description: An in vivo anticoccidial efficacy evaluation test was performed in an animal experiment facility in Gyeongsangnam-do, South Korea. One-day-old female Ross broilers were individually weighed and randomly divided into groups to use in an experiment. Matters and conditions for experimental design were described in Table 2.
A breeding farm was managed according to the Korean poultry breeding management guidelines. Cages and the breeding farm were cleaned and disinfected before starting the test. The temperature of […] and the humidity of 40 to 50% of the breeding farm were maintained, and it was continuously monitored. General feed was fed according to the nutritional requirements of broilers, and the mixing ratio was described in Table 3.
To the general feed (Table 3), each material (salinomycin (CAS No. 53003-10-4), resveratrol (sigma) or pterostilbene (sigma) was added at a concentration described in Table 4 below, respectively, and was self-mixed.
Antibiotics and supplements were not used in general feed and mixed feed, and no anticoccidial agent other than each material was added. Broilers were fed ad libitum throughout the experiment period. After putting 6 1-day-age broilers in cages randomly placed for each of the control group or test group and breeding, general feed was fed for 14 days, and then the mixed feed prepared above was ingested by dividing by control group or test group.
Coccidiosis induction was performed by oral inoculation (challenge inoculation) in an oral tube type of 10,000 oocysts (eggs) with over 90% mature (sporulation) Eimeria tenella per one individual to 21-day-old broilers.
The anticoccidial efficacy by test group designed in Example 1-2 above was shown as an anticoccidial index (ACI), and the anticoccidial index was calculated by Equation 2 below. The ACI score is out of 200 points, and the higher the ACI score, the more excellent the anticoccidial ability, and when it is 120 points or more to less than 140 points, it is determined that it is effective as an anticoccidial material, and when it is 140 points or more to less than 160 points, it is determined that it is excellent as an anticoccidial material, and when it is 160 points or more, it is determined that the anticoccidial effect is very excellent (Luis Miguel De Pablos et al., Anticoccidial activity of maslinic acid against infection with Eimeria tenella in chickens, Parasitol Res, 2010). Anticoccidial index(ACI)=(survival rate after challenge inoculation (%))+(daily weight gain compared to negative control group(RWG, %))−(lesion score×10)−(fecal oocyst excretion amount index) (Equation 2)
1) Survival rate: the number of dead individuals was recorded daily, and post mortem autopsy was performed to determine a cause of mortality, and the number of individuals who died due to causes other than coccidiosis was excluded. The survival rate (%) up to the 8th day after challenge inoculation was used for anticoccidial index calculation. The measured survival rate was described in Table 5 below.
2) Daily weight gain: body weight was measured for each cage before challenge inoculation with a protozoan into an individual and at the 7th day after challenge inoculation, and the difference was divided by the number of days to calculate the daily weight gain (ADG, g/d). ‘Daily weight gain compared to the negative control group (RWG, %)’ which was calculated by dividing the daily weight gain (ADG, average daily gain; g/d) of each experimental group by the weight gain (ADG, g/d) of the non-infected negative control group and multiplying by 100 was used for anticoccidial index calculation. The daily weight gain (ADG, g/d) measured in each control group and test group and the daily weight gain compared to the negative control group (RWG, %) were shown in Table 5 below.
3) Lesion scoring: On the 8th day after challenge inoculation, an autopsy was conducted for 6 broilers per cage, and the intestines were incised and opened. […]

| SMILES | Protozoal death rate by material treatment concentration (%) ([1]; 16 ppm) | Protozoal death rate by material treatment concentration (%) ([1]; 32 ppm) | Protozoal death rate by material treatment concentration (%) ([1]; 62 ppm) | Protozoal death rate by material treatment concentration (%) ([1]; 125 ppm) | Protozoal death rate by material treatment concentration (%) ([1]; 250 ppm) | Protozoal death rate by material treatment concentration (%) ([1]; 500 ppm) | concentration showing death rate of 50% or more against the protozoan [1] [ppm] | Survival rate after challenge inoculation (%) [2] [%] | BWG after challenge inoculation (g/d) [2] | anticoccidial index [2] [points] | ACI [2] | Lesion score [2] | anticoccidial efficacy compared with salinomycin [2] | Oocyst index [2] | Lesion index [2] | Daily weight gain compared to negative control group (RWG, %) [2] [%] |
| --- | --- | --- | --- | --- | --- | --- | --- | --- | --- | --- | --- | --- | --- | --- | --- | --- |
| N#CC(c1ccc(Cl)cc1)c1c(Cl)cc(-n2ncc(=O)[nH]c2=O)cc1Cl (stereo not shown) [Diclazuril, diclazuril, reference compound] | 0 | 0 | 0 | 0 | 35 | 44 |  |  |  |  |  |  |  |  |  |  |
| O=C(O)c1cc(O)c(O)c(O)c1 [Gallic acid, gallic acid, reference compound] | 0 | 0 | 0 | 0 | 26 | 32 |  |  |  |  |  |  |  |  |  |  |
| COc1cc(O)cc(/C=C/c2ccc(O)cc2)c1 [Pinostilbene, 3-Methoxy-4′,5-dihydroxy-trans-stilbene] | 0 | 0 | 0 | 0 | 50.5 | 61.3 | ≥ 250 |  |  |  |  |  |  |  |  |  |
| COc1cc(/C=C/c2ccc(O)cc2)cc(OC)c1 [Pterostilbene, 3,5-Dimethoxy-4′-hydroxystilbene] | 33.3 | 63.4 | 74.2 | 100 | 100 | 100 | ≥ 32 | 100 | 389^bc g/d | 151 | 151 | 2.8^b | equivalent or superior | 10 | 28 | 89 |
| Oc1ccc(/C=C/c2cc(O)cc(O)c2)cc1 [Resveratrol] |  |  |  |  |  |  |  | 100 | 381^bcd g/d | 149 | 149 | 2.95 | equivalent or superior | 10 | 29 | 87 |
| CC[C@@H](C(=O)[C@@H](C)[C@@H](O)[C@H](C)[C@@H]1O[C@@H]([C@@H](CC)C(=O)O)CC[C@@H]1C)[C@H]1O[C@]2(C=C[C@@H](O)[C@]3(CC[C@@](C)([C@H]4CC[C@](O)(CC)[C@H](C)O4)O3)O2)[C@H](C)C[C@@H]1C [Salinomycin, salinomycin, reference compound] |  |  |  |  |  |  |  | 100 | 360^cd g/d | 149 | 149 | 2.3^c |  | 10 | 23 | 82 |
